The results in this text go back to patent US11530235B2, “Compounds and methods used in assessing mono-PARP activity” (Oregon Health & Science University, priority 2015, dated 2022).

For one test, the target named is T1, WT-PARP11 (Homo sapiens, UniProt Q9NR21).
T1 sequence (Q9NR21 1-331 isoform Q9NR21-1): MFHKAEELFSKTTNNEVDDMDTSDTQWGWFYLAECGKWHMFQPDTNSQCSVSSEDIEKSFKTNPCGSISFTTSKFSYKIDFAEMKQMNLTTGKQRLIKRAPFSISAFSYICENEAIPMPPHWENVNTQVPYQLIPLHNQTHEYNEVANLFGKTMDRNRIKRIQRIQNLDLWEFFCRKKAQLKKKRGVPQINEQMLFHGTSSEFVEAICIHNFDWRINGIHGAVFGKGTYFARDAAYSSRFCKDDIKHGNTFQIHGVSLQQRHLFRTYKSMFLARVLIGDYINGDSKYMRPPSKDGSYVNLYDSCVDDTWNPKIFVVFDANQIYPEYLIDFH
The experiment in a line: Lysate labeling, HEK 293T cells expressing WT-PARP11. Conditions: HEK 293T lysate.

The target in the next test is T2, GFP-WT-PARP10 (Homo sapiens, UniProt Q53GL7).
T2 sequence (Q53GL7 1-1025): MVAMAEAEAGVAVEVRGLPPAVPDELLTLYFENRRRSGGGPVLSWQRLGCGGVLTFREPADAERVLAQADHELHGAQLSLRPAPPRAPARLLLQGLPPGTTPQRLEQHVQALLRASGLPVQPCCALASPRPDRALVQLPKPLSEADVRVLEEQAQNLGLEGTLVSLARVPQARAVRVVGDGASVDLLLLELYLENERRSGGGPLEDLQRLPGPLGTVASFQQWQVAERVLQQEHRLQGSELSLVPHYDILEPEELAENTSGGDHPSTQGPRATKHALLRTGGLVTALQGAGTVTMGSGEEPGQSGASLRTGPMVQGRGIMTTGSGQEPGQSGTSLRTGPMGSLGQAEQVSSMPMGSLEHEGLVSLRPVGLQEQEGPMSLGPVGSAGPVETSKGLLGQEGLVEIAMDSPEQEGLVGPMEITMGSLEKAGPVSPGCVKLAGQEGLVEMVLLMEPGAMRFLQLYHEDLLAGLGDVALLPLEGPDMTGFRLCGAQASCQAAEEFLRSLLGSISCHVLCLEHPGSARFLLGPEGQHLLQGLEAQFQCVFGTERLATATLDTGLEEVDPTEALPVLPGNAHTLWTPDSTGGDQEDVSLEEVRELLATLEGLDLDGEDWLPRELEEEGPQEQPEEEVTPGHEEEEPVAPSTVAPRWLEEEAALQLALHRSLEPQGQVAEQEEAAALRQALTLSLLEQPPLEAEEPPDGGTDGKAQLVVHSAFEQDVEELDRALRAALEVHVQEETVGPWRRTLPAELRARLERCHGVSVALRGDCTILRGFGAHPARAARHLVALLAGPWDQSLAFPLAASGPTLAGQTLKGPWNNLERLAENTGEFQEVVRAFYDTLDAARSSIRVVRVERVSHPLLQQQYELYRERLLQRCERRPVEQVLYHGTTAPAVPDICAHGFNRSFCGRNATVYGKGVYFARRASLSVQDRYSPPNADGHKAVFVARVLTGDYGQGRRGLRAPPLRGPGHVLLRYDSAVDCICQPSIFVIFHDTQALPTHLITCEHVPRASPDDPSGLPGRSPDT
Nature of the test: Lysate labeling, HEK 293T cells expressing WT-PARP10. Conditions: HEK 293T lysate, WT-PARP10, 100 μM, click conjugation with biotin-azide.

The target in another test is T3, WT-PARP15cat (Homo sapiens, UniProt Q460N3).
T3 sequence (Q460N3 482-678 limits assumed): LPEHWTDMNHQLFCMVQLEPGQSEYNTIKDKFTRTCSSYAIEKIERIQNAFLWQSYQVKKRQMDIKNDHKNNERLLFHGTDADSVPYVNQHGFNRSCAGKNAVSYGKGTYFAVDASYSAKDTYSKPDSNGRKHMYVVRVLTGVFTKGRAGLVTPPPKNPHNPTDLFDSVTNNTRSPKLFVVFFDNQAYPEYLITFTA
Nature of the test: In vitro SRPK2 MARylation with WT-PARP15cat. Format: biochemical.

A further test addresses T4, WT-PARP10cat (Homo sapiens, UniProt Q53GL7).
T4 sequence (Q53GL7 806-1025 limits assumed): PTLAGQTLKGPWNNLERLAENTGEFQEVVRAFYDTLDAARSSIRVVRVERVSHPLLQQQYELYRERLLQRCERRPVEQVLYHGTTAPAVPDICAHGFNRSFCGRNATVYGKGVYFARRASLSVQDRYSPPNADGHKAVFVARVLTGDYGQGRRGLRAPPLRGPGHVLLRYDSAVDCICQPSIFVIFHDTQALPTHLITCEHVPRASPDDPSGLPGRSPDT
Nature of the test: SRPK2 MARylation assay with WT-PARP10cat. Conditions: 100 μM NAD+ analogue, 2 hours at 30° C., in-gel fluorescence.

A further test deals with L926A-PARP10cat (Homo sapiens, UniProt Q53GL7, L926A). Nature of the test: SRPK2 MARylation assay with L926A-PARP10cat. Conditions: relative to WT-PARP10cat; 100 μM NAD+ analogue, in-gel fluorescence.
Sequence of L926A-PARP10cat (Q53GL7 806-1025 L926A): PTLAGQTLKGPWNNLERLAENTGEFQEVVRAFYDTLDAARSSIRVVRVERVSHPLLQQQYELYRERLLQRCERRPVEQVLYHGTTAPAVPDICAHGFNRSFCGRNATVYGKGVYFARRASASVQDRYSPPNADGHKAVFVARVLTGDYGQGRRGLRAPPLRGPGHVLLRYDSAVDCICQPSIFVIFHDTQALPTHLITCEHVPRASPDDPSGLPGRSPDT

5-benzyl-6-a-NAD+ [5-Bn-6-a-NAD+]: the figures for the “labeling of lysate proteins (streptavidin-HRP)” value at WT-PARP11 and at GFP-WT-PARP10 were “Minimal background labeling” and “low-level of background labeling”, respectively. For the same compound, the “use as substrate by WT-PARP15cat to MARylate SRPK2” value at WT-PARP15cat is on record as “did not use”.
As to `C#CCNc1ncnc2c1ncn2[C@@H]1O[C@H](COP(=O)(O)OP(=O)([O-])OC[C@H]2O[C@@H]([n+]3cccc(C(N)=O)c3)[C@H](O)[C@@H]2O)[C@@H](O)[C@H]1O` [6-a-NAD+], the “use as substrate to mediate SRPK2 MARylation by WT-PARP10cat” value at WT-PARP10cat is recorded as “used as a substrate”. For the same compound, at L926A-PARP10cat, the “use as substrate to mediate SRPK2 MARylation by L926A-PARP10cat” value was “to a lesser extent”.
